In brackets after ≈: the same amount, converted by molar mass.
Tests used:
[1] = tested on: AlbAS in competition with gyrase construct GyrBA59; experiment: NMR-based in vitro competition experiment of AlbAS and GyrBA59; type: binding, E. coli; details: 30 µM each of GyrBA59, AlbAS and albicidin; MgCl2, ATP, pBR322
Protocol: For the competition experiment with the DNA gyrase construct GyrBA59, 1.7 mM ATP was incubated with 3.4 mM MgCl2 for 10 min. Subsequently, 30 µM GyrBA59 and 3 µg supercoiled pBR322 plasmid DNA (Inspiralis) were added and incubated for another 10 min. Finally, 30 µM ^15N-labeled AlbAS were added to the mixture followed by 30 µM albicidin (10% D2O and 5% DMSO final concentration). Owing to the low protein concentrations (to achieve a 1:1 ratio of gyrase and AlbAS), a ^1H-^15N band-selective optimized flip-angle short-transient heteronuclear multiple quantum coherence (SOFAST HMQC)[44] experiment was performed. The ^1H-^15N SOFAST HMQC was recorded with 2048 scans and with acquisition times of 45 and 38 ms for the ^1H and ^15N dimensions, respectively. Measurements were performed at 303.2 K. The control experiment was performed under the same conditions but without the addition of MgCl2, ATP, pBR322 plasmid DNA, and GyrBA59.

Enterobacter cloacae = experiment: MIC assay, clinical isolates; type: cell-based
Protocol: (§1) The MIC assay was performed by Antiinfectives Intelligence GmbH (Rheinbach, Germany) using internationally standardized protocols and employing clinical isolates of K. oxytoca, K. pneumoniae, R. ornithologica, P. aeruginosa, A. baumannii and E. cloacae.

Klebsiella pneumoniae = experiment: MIC assay, clinical isolates; type: cell-based; details: seven Klebsiella pneumoniae strains
Protocol: as §1

P. aeruginosa = experiment: MIC assay, clinical isolates; type: cell-based; details: Pseudomonas aeruginosa
Protocol: as §1

Acinetobacter baumanii = experiment: MIC assay, clinical isolates; type: cell-based; details: Acinetobacter baumannii
Protocol: as §1

Staphylococcus aureus = tested on: Staphylococcus aureus; design: method as in PMID 17074789, PMID 25504839; details: cited from earlier work
AlbAL = AlbAL (Klebsiella oxytoca, UniProt A0A9P0U153); experiment: CD-detected thermal unfolding of AlbAL; type: binding; details: 1.5-fold ligand, 20 µM protein; AlbAL alone 71 °C
Protocol: (§2) For determination of the melting temperature and information on protein-ligand stability, CD measurements were performed on a J-815 CD spectrometer (Jasco, Groß-Umstadt, Germany). Protein samples (2.0 mM for AlbAS and 0.2 mM for AlbAL) were saturated with 1.5-fold albicidin and diluted to a protein concentration of 20 μM in order to ensure a final DMSO content of only 0.05% for AlbAS and 0.5% for AlbAL. A volume of 250 μL of the reaction mixture was transferred into a quartz cuvette with 1 mm path length. Six far-UV spectra were accumulated in a wavelength range of 195–300 nm (203–300 nm for AlbAL) at three different temperatures (10, 21, and 90 °C) with a scanning speed of 50 nm s^−1. For evaluation of the spectra the measured buffer blank (50 mM sodium hydrogen phosphate and 100 mM NaCl, pH 6.8) was subtracted from the averaged spectra. The temperature curves were recorded from 10–90 °C in 0.5 °C min^−1 steps while monitoring the ellipticity at 215 nm (218 nm for ALbAL). […] The melting temperatures of AlbAS, AlbAS–albicidin, AlbAS–compound 5, AlbAS–compound 7, AlbAL, and AlbAL–albicidin were determined by nonlinear regression of the measured data using Eq. (1). […] The Tm was thus determined by fitting the second transition representing the stabilized domain/species. […]

AlbAS = target: T1, AlbAS (Klebsiella oxytoca, UniProt Q8KRS7); experiment: CD-detected thermal unfolding of AlbAS; type: binding; details: 1.5-fold ligand, 20 µM protein; AlbAS alone 66 °C
T1 sequence (Q8KRS7 1-221): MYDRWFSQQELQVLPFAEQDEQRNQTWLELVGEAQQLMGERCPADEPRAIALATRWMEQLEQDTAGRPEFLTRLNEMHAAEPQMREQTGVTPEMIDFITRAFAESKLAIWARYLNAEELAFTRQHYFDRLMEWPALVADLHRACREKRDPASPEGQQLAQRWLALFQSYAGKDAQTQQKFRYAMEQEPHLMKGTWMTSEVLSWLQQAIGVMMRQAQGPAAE
Protocol: as §2

AlbASNTD = AlbASNTD (Klebsiella oxytoca, UniProt Q8KRS7); experiment: Fluorescence quenching binding assay with AlbASNTD; details: AlbASNTD 100 nM, n constrained to 1
Protocol: Fluorescence quenching measurements were performed by monitoring tryptophan fluorescence of AlbAS (20 nM), AlbAL (20 nM), AlbASNTD, and AlbASCTD (100 nM) on a FluoroMax 2 spectrometer from Horiba (Potsdam, Germany). The excitation wavelength was set to λexc = 280 nm. Emission spectra were recorded from λem = 290–450 nm with a scanning speed of 1 nm s^−1 and an integration time of 1 s. The excitation and emission slit widths were set to 8 and 4 nm, respectively. Proteins were solved in 50 mM sodium phosphate buffer with 150 mM NaCl and 0.01% DMSO at pH 6.8. All measurements were performed twice and the standard deviation is given for the Kd and the Hill factor n. Data evaluation was performed by integration of the emission band (318–410 nm for AlbAS, 316–412 nm for AlbAL, and 319–390 nm for AlbASNTD and AlbASCTD) for every titration step. The area under the curve (AUC) of the buffer blank (buffer with 0.01% DMSO) was subtracted from the measured titration data. The quenching factor was determined by subtraction of AUCs for each titration step from the AUC of the protein in the absence of ligand. For determination of the AlbAS– and AlbAL–albicidin Kd values, the data were fitted to Eq. (2).2 Y=Bmax[L]^n/Kdn+[L]^n where [L], n, and Bmax denote the total ligand concentration, the Hill coefficient, and the maximum binding capacity of the protein, respectively.

[2] = tested on: Pseudomonas aeruginosa DSM 117; design: method as in PMID 17074789, PMID 25504839; details: cited from earlier work
Salmonella enteritidis = tested on: Salmonella enteritidis; design: method as in PMID 17074789, PMID 25504839; details: cited from earlier work

Chain of AlbAL (A0A9P0U153 entry or part of it): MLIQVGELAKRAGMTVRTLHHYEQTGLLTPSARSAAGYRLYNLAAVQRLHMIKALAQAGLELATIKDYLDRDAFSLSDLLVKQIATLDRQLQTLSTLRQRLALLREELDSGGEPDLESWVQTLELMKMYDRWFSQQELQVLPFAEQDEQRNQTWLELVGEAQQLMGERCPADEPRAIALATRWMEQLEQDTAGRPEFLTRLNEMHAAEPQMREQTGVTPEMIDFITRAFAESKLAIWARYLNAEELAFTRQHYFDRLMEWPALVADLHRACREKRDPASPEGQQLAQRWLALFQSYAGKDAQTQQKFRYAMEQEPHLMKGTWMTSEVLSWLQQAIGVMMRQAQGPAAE

**Q.** For `COc1c(NC(=O)c2ccc(NC(=O)c3ccc(NC(=O)[C@H](CC#N)NC(=O)c4ccc(NC(=O)/C(C)=C/c5ccc(O)cc5)cc4)cc3)c(OC)c2O)ccc(C(=O)O)c1O` [albicidin], which “competition between AlbAS and GyrBA59 for the ligand (in words)” value [1] is on record?
**A.** Its value is “AlbAS fully populated the albicidin-bound state”.

**Q.** And the MIC (Enterobacter cloacae)?
**A.** The MIC was no less than 64 µg/mL.

**Q.** What about the MIC (Klebsiella pneumoniae) of the same compound?
**A.** The MIC was no less than 64 µg/mL.

**Q.** What about the MIC (P. aeruginosa) of the same compound?
**A.** Its MIC is no less than 64 µg/mL.

**Q.** What about the MIC (Acinetobacter baumanii) of the same compound?
**A.** Its MIC is no less than 64 µg/mL.

**Q.** And the MIC (Staphylococcus aureus)?
**A.** Its MIC is 4.0 µg/mL (≈ 4.75 µM).

**Q.** What about the “melting temperature Tm of AlbAL upon ligand binding” value (AlbAL) of the same compound?
**A.** Its value is 74 °C.

**Q.** What about the “melting temperature Tm of AlbAS upon ligand binding” value (AlbAS) of the same compound?
**A.** Its value is 81 °C.

**Q.** And the Kd (AlbASNTD)?
**A.** The Kd was 3.4 ± 0.2 µM.

**Q.** And the MIC [2]?
**A.** The MIC was 1.0 µg/mL (≈ 1.19 µM).

**Q.** What about the MIC (Salmonella enteritidis) of the same compound?
**A.** The MIC was 0.5 µg/mL (≈ 0.593 µM).
